Values of other authors in patent US6900317B2, “Salts of the CGRP antagonist BIBN4096 and inhalable powdered medicaments containing them” (Boehringer Ingelheim Pharma GmbH & Co. KG, priority 2002, dated 2005).

Details: conventional preparations

In the case of `NCCCC[C@H](NC(=O)[C@@H](Cc1cc(Br)c(O)c(Br)c1)NC(=O)N1CCC(N2Cc3ccccc3NC2=O)CC1)C(=O)N1CCN(c2ccncc2)CC1` [BIBN4096, 1-[N^2-[3,5-dibromo-N-[[4-(3,4-dihydro-2(1H)-oxoquinazolin-3-yl)-1-piperidinyl]carbonyl]-D-tyrosyl]-L-lysyl]-4-(4-pyridinyl)-piperazine], the “bioavailability by oral route” value is listed as “only limited bioavailability”.
